Test results taken from the supplement of paper PMC10307832.

Tests used:
Test in all cases: relative viability (nuclei count vs DMSO), 5 days (fraction); higher = more cells survive
Tozasertib + Luminespib = compound: Cc1cc(Nc2cc(N3CCN(C)CC3)nc(Sc3ccc(NC(=O)C4CC4)cc3)n2)n[nH]1 [Tozasertib] + CCNC(=O)c1noc(-c2cc(C(C)C)c(O)cc2O)c1-c1ccc(CN2CCOCC2)cc1 [Luminespib] (partner 0.01 µM)
Summary of the method: (§1)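 Lung cancer cell lines in 1536-well plates were dosed by pin tool the day after seeding, either with one drug alone or with a fixed anchor-drug dose plus five library-drug doses (not always all listed) in √10 steps. After 5 days, cells were fixed and their nuclei stained in one step (final 0.05% Triton X-100, 1% formaldehyde, 1 ug/ml Hoechst), then counted on 4× images. Relative viability is the nuclei count in treated wells divided by that in vehicle wells. Values are medians of duplicate plates.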

Tozasertib + Trametinib = compound: Cc1cc(Nc2cc(N3CCN(C)CC3)nc(Sc3ccc(NC(=O)C4CC4)cc3)n2)n[nH]1 [Tozasertib] + CC(=O)Nc1cccc(-n2c(=O)n(C3CC3)c(=O)c3c(Nc4ccc(I)cc4F)n(C)c(=O)c(C)c32)c1 [Trametinib] (partner 0.02 µM)
Summary of the method: as §1

Tozasertib + Palbociclib = compound: Cc1cc(Nc2cc(N3CCN(C)CC3)nc(Sc3ccc(NC(=O)C4CC4)cc3)n2)n[nH]1 [Tozasertib] + CC(=O)c1c(C)c2cnc(Nc3ccc(N4CCNCC4)cn3)nc2n(C2CCCC2)c1=O [Palbociclib] (partner 0.5 µM)
Summary of the method: as §1

Tozasertib + OSI-027 = compound: Cc1cc(Nc2cc(N3CCN(C)CC3)nc(Sc3ccc(NC(=O)C4CC4)cc3)n2)n[nH]1 [Tozasertib] + COc1cccc2cc(-c3nc([C@H]4CC[C@H](C(=O)O)CC4)n4ncnc(N)c34)[nH]c12 [OSI-027] (partner 0.5 µM)
Summary of the method: as §1

| Cell Line | relative viability (Tozasertib + Luminespib; first compound 0.004 µM) | relative viability (Tozasertib + Luminespib; first compound 0.01265 µM) | relative viability (Tozasertib + Luminespib; first compound 0.04 µM) | relative viability (Tozasertib + Luminespib; first compound 0.1265 µM) | relative viability (Tozasertib + Trametinib; first compound 0.004 µM) | relative viability (Tozasertib + Trametinib; first compound 0.01265 µM) | relative viability (Tozasertib + Trametinib; first compound 0.04 µM) | relative viability (Tozasertib + Trametinib; first compound 0.1265 µM) | relative viability (Tozasertib + Palbociclib; first compound 0.004 µM) | relative viability (Tozasertib + Palbociclib; first compound 0.01265 µM) | relative viability (Tozasertib + Palbociclib; first compound 0.04 µM) | relative viability (Tozasertib + Palbociclib; first compound 0.1265 µM) | relative viability (Tozasertib + OSI-027; first compound 0.004 µM) | relative viability (Tozasertib + OSI-027; first compound 0.01265 µM) | relative viability (Tozasertib + OSI-027; first compound 0.04 µM) | relative viability (Tozasertib + OSI-027; first compound 0.1265 µM) |
| --- | --- | --- | --- | --- | --- | --- | --- | --- | --- | --- | --- | --- | --- | --- | --- | --- |
| NCI-H1437 | 1.19 | 1.1 | 1.09 | 1.03 | 0.562 | 0.422 | 0.54 | 0.294 | 0.327 | 0.267 | 0.316 | 0.19 | 1 | 0.794 | 0.874 | 0.606 |
| NCI-H1650 | 0.199 | 0.2 | 0.223 | 0.197 | 0.482 | 0.58 | 0.624 | 0.175 | 0.328 | 0.287 | 0.365 | 0.207 | 0.689 | 0.602 | 0.621 | 0.302 |
| NCI-H1651 | 0.818 | 0.918 | 1 | 0.909 | 0.884 | 0.785 | 0.907 | – | 0.54 | 0.515 | 0.539 | 0.519 | 0.888 | 0.645 | – | 0.666 |
| NCI-H1666 | 0.957 | 1.03 | 0.968 | 0.859 | 0.79 | 0.86 | 0.863 | 0.727 | 0.644 | 0.62 | 0.663 | 0.612 | 0.859 | – | 0.814 | 0.765 |
| NCI-H1734 | 0.223 | 0.184 | 0.2 | 0.167 | – | 0.793 | 0.678 | 0.403 | 0.361 | 0.308 | 0.364 | 0.306 | 0.597 | 0.596 | 0.557 | 0.435 |
| NCI-H1755 | 0.259 | 0.386 | 0.322 | 0.413 | 0.733 | 0.696 | 0.849 | 0.742 | 0.456 | 0.461 | 0.442 | 0.442 | 0.661 | 0.636 | 0.725 | 0.601 |
| NCI-H1792 | 0.394 | – | 0.456 | 0.325 | 0.481 | 0.412 | 0.754 | 0.35 | 0.731 | 0.594 | 0.758 | 0.61 | 0.716 | 0.579 | 0.81 | 0.621 |
| NCI-H1793 | 0.181 | 0.198 | 0.191 | 0.18 | 0.442 | 0.385 | 0.415 | 0.328 | 0.307 | 0.312 | 0.367 | 0.295 | 0.229 | 0.214 | 0.358 | 0.228 |
| NCI-H1915 | 0.968 | 0.835 | 0.678 | 0.482 | 0.261 | 0.298 | 0.336 | 0.264 | 0.515 | 0.498 | 0.535 | 0.465 | 0.669 | 0.592 | 0.658 | 0.569 |
| NCI-H1944 | 0.717 | 0.706 | 0.866 | 0.414 | 0.396 | 0.392 | 0.446 | 0.306 | 0.311 | 0.308 | 0.332 | 0.273 | 0.471 | 0.397 | 0.422 | 0.247 |
| NCI-H1975 | 0.213 | 0.32 | 0.171 | 0.198 | 0.385 | 0.321 | 0.826 | 0.322 | 0.59 | 0.598 | 0.623 | 0.622 | 0.968 | 0.758 | – | 0.683 |
| NCI-H1993 | 0.755 | 0.631 | 0.796 | 0.618 | 0.444 | 0.396 | 0.5 | 0.54 | 0.622 | 0.63 | 0.681 | 0.743 | 0.485 | 0.505 | 0.569 | 0.524 |
| NCI-H2009 | 1.03 | 0.972 | 1.06 | 1.07 | 0.288 | 0.288 | 0.341 | 0.216 | 0.254 | 0.201 | 0.247 | 0.164 | 0.635 | 0.614 | 0.668 | 0.51 |
| NCI-H2023 | 0.811 | 0.749 | 0.9 | 0.598 | 0.557 | 0.455 | 0.535 | 0.425 | 0.409 | 0.384 | 0.417 | 0.243 | 0.391 | 0.325 | 0.488 | 0.285 |
| NCI-H2085 | 0.473 | 0.428 | 0.442 | 0.457 | 0.681 | 0.6 | 0.504 | 0.476 | 0.462 | 0.455 | 0.464 | 0.475 | 0.769 | 0.726 | 0.828 | 0.695 |
| NCI-H2087 | 0.175 | 0.185 | 0.177 | 0.172 | 0.185 | 0.187 | 0.218 | 0.126 | 0.248 | 0.204 | 0.231 | 0.128 | 0.638 | 0.576 | 0.64 | 0.444 |
| NCI-H2126 | 1 | 0.935 | 0.891 | 0.865 | 0.562 | 0.535 | 0.632 | 0.552 | 0.354 | 0.405 | 0.372 | 0.339 | 0.777 | 0.728 | 0.773 | 0.657 |
| NCI-H2170 | 0.708 | 0.767 | 0.744 | 0.689 | 0.896 | 0.904 | 0.94 | 0.818 | 0.402 | 0.382 | 0.391 | 0.337 | 0.639 | 0.713 | 0.792 | 0.628 |
| NCI-H2228 | 0.216 | 0.167 | 0.204 | 0.167 | 0.485 | 0.503 | 0.513 | 0.345 | 0.994 | 0.764 | 0.671 | 0.453 | 0.703 | 0.506 | 0.528 | 0.29 |
| NCI-H2342 | 0.646 | – | 0.697 | 0.767 | 0.77 | 0.969 | 0.849 | 0.897 | 0.491 | 0.511 | 0.476 | 0.531 | 0.654 | 0.525 | 0.657 | 0.582 |
| NCI-H2347 | 0.326 | – | 0.39 | 0.346 | 0.279 | 0.299 | 0.317 | 0.256 | 0.384 | 0.457 | 0.472 | 0.413 | 0.447 | – | 0.369 | 0.389 |
| NCI-H2405 | 0.673 | 0.67 | 0.58 | 0.712 | 0.649 | 0.658 | 0.652 | 0.611 | 0.558 | 0.538 | 0.498 | 0.527 | 0.616 | 0.676 | 0.642 | 0.698 |
| NCI-H3122 | 0.0858 | 0.0879 | 0.1 | 0.101 | 0.198 | 0.244 | 0.239 | 0.23 | 0.157 | 0.159 | 0.211 | 0.201 | 1.04 | 0.915 | 0.967 | 0.928 |
| PC-3 [JPC-3] | 0.625 | 0.699 | 0.814 | 0.71 | 0.502 | 0.72 | 0.762 | 0.715 | 0.526 | 0.535 | 0.511 | 0.545 | 0.587 | 0.74 | 0.799 | 0.701 |
| PC-14 | – | 0.114 | 0.179 | 0.129 | – | 0.767 | 0.994 | 0.595 | – | 0.576 | 0.526 | 0.474 | – | 0.795 | 1.06 | 0.523 |
| RERF-LC-KJ | 1.3 | 1.21 | 1.2 | 0.983 | 0.807 | 0.841 | 0.862 | – | 1.14 | 0.973 | 1.01 | 0.969 | – | 0.597 | 0.59 | 0.484 |
| SK-LU-1 | 0.242 | 0.211 | 0.197 | 0.191 | 0.447 | 0.505 | 0.567 | 0.461 | 0.428 | 0.414 | 0.476 | 0.469 | 0.466 | 0.371 | 0.358 | 0.301 |
| SK-MES-1 | 0.921 | 0.731 | 0.82 | 0.82 | 0.589 | 0.557 | 0.713 | 0.616 | 0.317 | 0.32 | 0.364 | 0.38 | 0.518 | 0.633 | 0.647 | 0.531 |
| SW 1573 | 0.25 | 0.239 | 0.139 | 0.228 | 0.521 | 0.652 | 0.569 | 0.179 | 0.455 | 0.355 | 0.284 | 0.151 | 0.619 | 0.526 | 0.512 | 0.204 |
| UMC-11 | 1.02 | 0.983 | – | 0.422 | 0.794 | 0.699 | 0.653 | 0.259 | 0.345 | 0.317 | 0.356 | 0.248 | 0.538 | 0.471 | 0.512 | 0.171 |
